# Tested on: moderate-to-severe chronic spontaneous urticaria (CSU)
# Assay: Phase 2 CSU study: hives severity score over 7 days (HSS7)
# Assay type: in vivo, human
# Set-up: key to HSS7 Change from baseline, Median / HSS7, Median / HSS7, Max / HSS7 Change from baseline, Q1 / HSS7 Change from baseline, Q3 / HSS7 Change from baseline, Max: 7-day sum of daily hive scores, each 0 = none to 3 = >50 hives
# Text: The study comprises a 12 week, randomized, double-blind, placebo-controlled, multi-center, dose-ranging efficacy and safety phase, followed by a 40 week open label extension (OLE) phase (see FIG. 1).
# The study consists of three phases and an optional OLE phase.
# The UAS is a validated PRO measure. The daily UAS is the sum of the daily Hive Severity Score (HSS, ranging from 0=None to 3=more than 50 hives) and the daily Itch Severity Score (ISS, ranging from 0=None to 3=intense), the 2 key urticaria signs and symptoms which are wheals and itch. The daily UAS scores range from 0 to 6 point/day. Daily UAS scores are summed over 7-day period to create the UAS7, ranging from 0 to 42, and are composed of the HSS7 and ISS7 components. […] Patients were to complete the UAS using the e-diary. The e-diary was to be used once daily on the same time of each day recording of participant's answers to the urticaria activity score over 7 days (UAS7) questionnaire. For participants who entered the OLE phase, their answers to the UAS7 questionnaire were also to be collected from Week 20 to Week24 and from Week 48 to Week 52.
# The following secondary endpoints were to be analyzed using the same approach as for the primary endpoint: • Change from baseline in UAS7 at Week 4 • Change from baseline in UAS7 at Week 12 (for US and US reference countries) • Change from baseline in ISS7 at Week 12 (except US and US reference countries) • Change from baseline in HSS7 at Week 12
# [1] = Week 7, 400 mg BID, Omalizumab-Naïve Population
# [2] = Week 7, 400 mg BID, Patients with Prior Omalizumab Use
# [3] = Week 7, 400 mg QPM, Omalizumab-Naïve Population
# [4] = Week 7, 400 mg QPM, Patients with Prior Omalizumab Use
# [5] = Week 7, 400 mg TID, Omalizumab-Naïve Population
# [6] = Week 7, 400 mg TID, Patients with Prior Omalizumab Use
# [7] = Week 8, 400 mg BID, Omalizumab-Naïve Population
# [8] = Week 8, 400 mg BID, Patients with Prior Omalizumab Use
# [9] = Week 8, 400 mg QPM, Omalizumab-Naïve Population
# [10] = Week 8, 400 mg QPM, Patients with Prior Omalizumab Use
# [11] = Week 8, 400 mg TID, Omalizumab-Naïve Population
# [12] = Week 8, 400 mg TID, Patients with Prior Omalizumab Use
# [13] = Week 9, 400 mg BID, Omalizumab-Naïve Population
# [14] = Week 9, 400 mg BID, Patients with Prior Omalizumab Use
# [15] = Week 9, 400 mg QPM, Omalizumab-Naïve Population
# [16] = Week 9, 400 mg QPM, Patients with Prior Omalizumab Use
# [17] = Week 9, 400 mg TID, Omalizumab-Naïve Population
# [18] = Week 9, 400 mg TID, Patients with Prior Omalizumab Use
smiles,measurement,setting,value
"CC(C)(C=C(C#N)C(=O)N1CCC[C@@H](n2nc(-c3ccc(Oc4ccccc4)cc3F)c3c(N)ncnc32)C1)N1CCN(C2COC2)CC1 [rilzabrutinib, (R)-2-[3-[4-amino-3-(2-fluoro-4-phenoxy-phenyl)pyrazolo[3,4-d]pyrimidin-1-yl]piperidine-1-carbonyl]-4-methyl-4-[4-(oxetan-3-yl)piperazin-1-yl]pent-2-enenitrile]","HSS7, Mean (SD)",[1],7.34 (6.12)
same,"HSS7, Median",[1],7.00
same,"HSS7 Change from baseline, Mean (SD)",[1],−6.75 (5.85)
same,"HSS7 Change from baseline, Median",[1],−7.00
same,"HSS7 Percent change from baseline, Mean (SD)",[1],−48.07 (38.31) %
same,"HSS7 Percent change from baseline, Median",[1],−50.00%
same,"HSS7, Mean (SD)",[2],4.80 (7.46)
same,"HSS7, Median",[2],0.00
same,"HSS7 Change from baseline, Mean (SD)",[2],−10.00 (9.67)
same,"HSS7 Change from baseline, Median",[2],−12.00
same,"HSS7 Percent change from baseline, Median",[2],−100.00%
same,"HSS7, Mean (SD)",[3],10.43 (5.27)
same,"HSS7, Median",[3],8.40
same,"HSS7 Change from baseline, Mean (SD)",[3],−4.82 (5.35)
same,"HSS7 Change from baseline, Median",[3],−4.00
same,"HSS7 Percent change from baseline, Mean (SD)",[3],−29.76 (31.10) %
same,"HSS7 Percent change from baseline, Median",[3],−35.71%
same,"HSS7, Mean (SD)",[4],9.00 (NC)
same,"HSS7, Median",[4],9.00
same,"HSS7 Change from baseline, Mean (SD)",[4],−11.00 (NC)
same,"HSS7 Change from baseline, Median",[4],−11.00
same,"HSS7 Percent change from baseline, Mean (SD)",[4],−55.00 (NC) %
same,"HSS7 Percent change from baseline, Median",[4],−55.00%
same,"HSS7, Mean (SD)",[5],6.40 (4.54)
same,"HSS7, Median",[5],5.92
same,"HSS7 Change from baseline, Mean (SD)",[5],−7.60 (5.60)
same,"HSS7 Change from baseline, Median",[5],−6.58
same,"HSS7 Percent change from baseline, Mean (SD)",[5],−52.36 (32.23) %
same,"HSS7 Percent change from baseline, Median",[5],−50.69%
same,"HSS7, Mean (SD)",[6],5.11 (4.08)
same,"HSS7, Median",[6],4.33
same,"HSS7 Change from baseline, Mean (SD)",[6],−10.92 (7.20)
same,"HSS7 Change from baseline, Median",[6],−9.50
same,"HSS7 Percent change from baseline, Mean (SD)",[6],−63.38 (24.01) %
same,"HSS7 Percent change from baseline, Median",[6],−54.41%
same,"HSS7, Mean (SD)",[7],6.66 (6.70)
same,"HSS7, Median",[7],5.00
same,"HSS7 Change from baseline, Mean (SD)",[7],−7.49 (6.10)
same,"HSS7 Change from baseline, Median",[7],−7.00
same,"HSS7 Percent change from baseline, Mean (SD)",[7],−54.71 (40.69) %
same,"HSS7 Percent change from baseline, Median",[7],−74.07%
same,"HSS7, Mean (SD)",[8],4.80 (7.46)
same,"HSS7, Median",[8],0.00
same,"HSS7 Change from baseline, Mean (SD)",[8],−10.00 (9.67)
same,"HSS7 Change from baseline, Median",[8],−12.00
same,"HSS7 Percent change from baseline, Median",[8],−100.00%
same,"HSS7, Median",[9],9.00
same,"HSS7 Change from baseline, Mean (SD)",[9],−4.56 (5.35)
same,"HSS7 Change from baseline, Median",[9],−4.00
same,"HSS7 Percent change from baseline, Mean (SD)",[9],−29.79 (35.34) %
same,"HSS7 Percent change from baseline, Median",[9],−28.57%
same,"HSS7, Mean (SD)",[10],9.00 (NC)
same,"HSS7, Median",[10],9.00
same,"HSS7 Change from baseline, Mean (SD)",[10],−11.00 (NC)
same,"HSS7 Change from baseline, Median",[10],−11.00
same,"HSS7 Percent change from baseline, Mean (SD)",[10],−55.00 (NC) %
same,"HSS7 Percent change from baseline, Median",[10],−55.00%
same,"HSS7, Mean (SD)",[11],6.12 (4.80)
same,"HSS7, Median",[11],6.00
same,"HSS7 Change from baseline, Mean (SD)",[11],−7.88 (5.18)
same,"HSS7 Change from baseline, Median",[11],−7.50
same,"HSS7 Percent change from baseline, Mean (SD)",[11],−56.04 (32.39) %
same,"HSS7 Percent change from baseline, Median",[11],−56.35%
same,"HSS7, Mean (SD)",[12],3.17 (4.45)
same,"HSS7, Median",[12],1.50
same,"HSS7 Change from baseline, Mean (SD)",[12],−12.86 (6.28)
same,"HSS7 Percent change from baseline, Mean (SD)",[12],−80.91 (20.45) %
same,"HSS7 Percent change from baseline, Median",[12],−86.73%
same,"HSS7, Mean (SD)",[13],7.01 (7.58)
same,"HSS7, Median",[13],3.50
same,"HSS7 Change from baseline, Mean (SD)",[13],−6.95 (6.00)
same,"HSS7 Change from baseline, Median",[13],7.00
same,"HSS7 Percent change from baseline, Mean (SD)",[13],−53.79 (43.28) %
same,"HSS7 Percent change from baseline, Median",[13],−68.18%
same,"HSS7, Mean (SD)",[14],4.80 (7.46)
same,"HSS7, Median",[14],0.00
same,"HSS7 Change from baseline, Mean (SD)",[14],−10.00 (9.67)
same,"HSS7 Change from baseline, Median",[14],−12.00
same,"HSS7 Percent change from baseline, Median",[14],−100.00%
same,"HSS7, Mean (SD)",[15],9.82 (5.59)
same,"HSS7, Median",[15],9.20
same,"HSS7 Change from baseline, Mean (SD)",[15],−5.33 (5.35)
same,"HSS7 Change from baseline, Median",[15],4.92
same,"HSS7 Percent change from baseline, Mean (SD)",[15],−34.46 (32.68) %
same,"HSS7 Percent change from baseline, Median",[15],−33.59%
same,"HSS7, Mean (SD)",[16],8.00 (NC)
same,"HSS7, Median",[16],8.00
same,"HSS7 Change from baseline, Mean (SD)",[16],−12.00 (NC)
same,"HSS7 Change from baseline, Median",[16],−12.00
same,"HSS7 Percent change from baseline, Mean (SD)",[16],−60.00 (NC) %
same,"HSS7 Percent change from baseline, Median",[16],−60.00%
same,"HSS7, Mean (SD)",[17],5.88 (4.98)
same,"HSS7, Median",[17],6.00
same,"HSS7 Change from baseline, Mean (SD)",[17],−8.19 (5.87)
same,"HSS7 Change from baseline, Median",[17],−8.00
same,"HSS7 Percent change from baseline, Mean (SD)",[17],−55.85 (38.63) %
same,"HSS7 Percent change from baseline, Median",[17],−57.14%
same,"HSS7, Mean (SD)",[18],3.25 (4.37)
same,"HSS7, Median",[18],2.00
same,"HSS7 Change from baseline, Mean (SD)",[18],−12.78 (6.34)
same,"HSS7 Change from baseline, Median",[18],−12.00
same,"HSS7 Percent change from baseline, Mean (SD)",[18],−80.12 (19.92) %
same,"HSS7 Percent change from baseline, Median",[18],−86.97%
same,"HSS7, Mean (SD)","Week 10, 400 mg BID, Omalizumab-Naïve Population",7.05 (7.27)
